Measured values published in the supplement of paper PMC11451515.

Tested on: P12-Ichikawa
Test: cell viability relative to DMSO control; higher = less cytotoxic
Details: 48 h
Procedure, shortened: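 NOMO1, SEM and P12-Ichikawa leukemia cells spent at least four passages adapting to each medium before use. They were seeded at 500 cells/well (NOMO1, SEM) or 1000 cells/well (P12-Ichikawa) in 5 μl in 1536-well plates and pin-dosed with library compounds in DMSO at 11 threefold steps from 47 μM down to 0.79 nM. After 48 h at 37°C, CellTiter-Glo One luminescence was read. Viability is reported as a percentage of the DMSO wells on each plate, with cell-free wells as background.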

[1] = HPLM + 10% dialyzed FBS, 0.000781 µM
[2] = HPLM + 10% dialyzed FBS, 0.00234 µM
[3] = HPLM + 10% dialyzed FBS, 0.00702 µM
[4] = HPLM + 10% dialyzed FBS, 0.0211 µM
[5] = HPLM + 10% dialyzed FBS, 0.0632 µM
[6] = HPLM + 10% dialyzed FBS, 0.19 µM
[7] = HPLM + 10% dialyzed FBS, 0.569 µM
[8] = HPLM + 10% dialyzed FBS, 1.71 µM
[9] = HPLM + 10% dialyzed FBS, 5.12 µM
[10] = HPLM + 10% dialyzed FBS, 15.4 µM
[11] = HPLM + 10% dialyzed FBS, 46.1 µM
[12] = RPMI 5 mM glucose + 10% FBS, 0.000781 µM
[13] = RPMI 5 mM glucose + 10% FBS, 0.00234 µM
[14] = RPMI 5 mM glucose + 10% FBS, 0.00702 µM
[15] = RPMI 5 mM glucose + 10% FBS, 0.0211 µM
[16] = RPMI 5 mM glucose + 10% FBS, 0.0632 µM
[17] = RPMI 5 mM glucose + 10% FBS, 0.19 µM
[18] = RPMI 5 mM glucose + 10% FBS, 0.569 µM
[19] = RPMI 5 mM glucose + 10% FBS, 1.71 µM
[20] = RPMI 5 mM glucose + 10% FBS, 5.12 µM
[21] = RPMI 5 mM glucose + 10% FBS, 15.4 µM
[22] = RPMI 5 mM glucose + 10% FBS, 46.1 µM
[23] = RPMI 5 mM glucose + 10% dialyzed FBS, 0.000781 µM
[24] = RPMI 5 mM glucose + 10% dialyzed FBS, 0.00234 µM
[25] = RPMI 5 mM glucose + 10% dialyzed FBS, 0.00702 µM
[26] = RPMI 5 mM glucose + 10% dialyzed FBS, 0.0211 µM
[27] = RPMI 5 mM glucose + 10% dialyzed FBS, 0.0632 µM
[28] = RPMI 5 mM glucose + 10% dialyzed FBS, 0.19 µM
[29] = RPMI 5 mM glucose + 10% dialyzed FBS, 0.569 µM
[30] = RPMI 5 mM glucose + 10% dialyzed FBS, 1.71 µM
[31] = RPMI 5 mM glucose + 10% dialyzed FBS, 5.12 µM
[32] = RPMI 5 mM glucose + 10% dialyzed FBS, 15.4 µM
[33] = RPMI 5 mM glucose + 10% dialyzed FBS, 46.1 µM

Row | Compound | cell viability [1] [%] | cell viability [2] [%] | cell viability [3] [%] | cell viability [4] [%] | cell viability [5] [%] | cell viability [6] [%] | cell viability [7] [%] | cell viability [8] [%] | cell viability [9] [%] | cell viability [10] [%] | cell viability [11] [%] | cell viability [12] [%] | cell viability [13] [%] | cell viability [14] [%] | cell viability [15] [%] | cell viability [16] [%] | cell viability [17] [%] | cell viability [18] [%] | cell viability [19] [%] | cell viability [20] [%] | cell viability [21] [%] | cell viability [22] [%] | cell viability [23] [%] | cell viability [24] [%] | cell viability [25] [%] | cell viability [26] [%] | cell viability [27] [%] | cell viability [28] [%] | cell viability [29] [%] | cell viability [30] [%] | cell viability [31] [%] | cell viability [32] [%] | cell viability [33] [%]
1 | C=C[C@H]1CN2CC[C@H]1C[C@H]2[C@H](O)c1ccnc2ccc(OC)cc12 | 100 | 98.6 | 93.6 | 104 | 96.3 | 100 | 104 | 105 | 108 | 110 | 100 | 95.9 | 104 | 99.4 | 95.7 | 93.6 | 101 | 106 | 109 | 129 | 111 | 75.4 | 89.9 | 89 | 91.7 | 93.1 | 96.3 | 96.7 | 94.1 | 95.3 | 102 | 101 | 81
2 | CN(NC(=O)CC(=O)NN(C)C(=S)c1ccccc1)C(=S)c1ccccc1 | 90.7 | 88.6 | 91.7 | 88.1 | 58.8 | 31.4 | 4.03 | 3.29 | 3.87 | 4.02 | 38.3 | 75.8 | 86.9 | 86.6 | 90.8 | 56.8 | 24.1 | 2.71 | 2.73 | 3.65 | 3.06 | 42.1 | 92.4 | 89.9 | 102 | 101 | 58.4 | 20.1 | 3.2 | 2.92 | 3.18 | 3.13 | 31.3
3 | COc1ncc(-c2ccc3nccc(-c4ccnnc4)c3c2)cc1N[S+](=O)([O-])c1ccc(F)cc1F | 118 | 115 | 115 | 106 | 101 | 95.6 | 95.3 | 74.8 | 35.8 | 17 | 11.3 | 139 | 111 | 91.1 | 91.4 | 83.3 | 77 | 69.9 | 55.9 | 40 | 17.5 | 8.78 | 131 | 113 | 101 | 97.3 | 89 | 90.3 | 80.5 | 61.3 | 47.5 | 13.6 | 9.07
4 | CCC(C)(C)c1ccc(CC(C)CN2C[C@@H](C)O[C@@H](C)C2)cc1 (stereo partly drawn) | 81.2 | 81.5 | 82.8 | 91.5 | 97.3 | 84.6 | 91.9 | 94.9 | 89 | 87.8 | 91.6 | 88.9 | 81.4 | 88.1 | 87.8 | 89.1 | 82.3 | 93.9 | 85.6 | 90.7 | 86.2 | 88 | 72 | 76.7 | 78.3 | 79.6 | 81.8 | 80.6 | 84 | 81.8 | 85.5 | 76.3 | 75.8
5 | C[C@]12CC[C@@H]3c4ccc(O)cc4C[C@@H](CCCCCCCCC[S+]([O-])CCCC(F)(F)C(F)(F)F)[C@H]3[C@@H]1CC[C@@H]2O (stereo partly drawn) | 112 | 119 | 115 | 116 | 112 | 117 | 112 | 112 | 116 | 104 | 104 | – | – | – | – | – | – | – | – | – | – | – | – | – | – | – | – | – | – | – | – | – | –
6 | COc1ccc(-n2nc(C(N)=O)c3c2C(=O)N(c2ccc(N4CCCCC4=O)cc2)CC3)cc1 | 118 | 121 | 125 | 132 | 132 | 127 | 141 | 124 | 16 | 15.2 | 14.8 | – | – | – | – | – | – | – | – | – | – | – | – | – | – | – | – | – | – | – | – | – | –
7 | CC(C)C(=O)Oc1ccc(CO)cc1[C@H](CCN(C(C)C)C(C)C)c1ccccc1 | 92 | 87.1 | 89.2 | 85.3 | 90.1 | 99 | 75.7 | 69.3 | 86.2 | 76.8 | 81.8 | 81.1 | 82.5 | 85.6 | 83.4 | 83.2 | 83.9 | 86.1 | 84.9 | 81.5 | 80.7 | 83.4 | 78.9 | 76.3 | 82.9 | 80.1 | 87 | 84.2 | 79.7 | 78.8 | 77.1 | 73.1 | 78.1
8 | CN1\C(=C(\O)C2=CC=CC=C2[S+]1([O-])=O)C(=O)NC3=NC=C(C)S3 | 95 | 95.7 | 93.9 | 94.6 | 99.3 | 100 | 98.4 | 98.3 | 101 | 97.5 | 112 | 91.8 | 91.7 | 88 | 86 | 93.8 | 88.8 | 84.8 | 89 | 95.4 | 96.7 | 112 | 79.3 | 92.8 | 83.1 | 91.4 | 96.2 | 87 | 92.7 | 87.8 | 80.8 | 90 | 86.7
9 | CC(C)NC[C@@H](C(=O)N1CCN(c2ncnc3c2[C@H](C)C[C@H]3O)CC1)c1ccc(Cl)cc1 | 118 | 120 | 114 | 109 | 100 | 99.5 | 92.8 | 83 | 67 | 48.2 | 28.1 | 109 | 105 | 111 | 107 | 100 | 85.8 | 71.3 | 65.2 | 52.8 | 44.4 | 33.6 | 112 | 109 | 114 | 115 | 103 | 95.3 | 85.2 | 78.1 | 55.5 | 37.2 | 23.5
10 | COc1ccc(-c2nc(N3CCOCC3)c3sc(CN(C)c4ncc(C(=O)NO)cn4)cc3n2)cn1 | 109 | 121 | 101 | 62.6 | 6.62 | 7.21 | 7.09 | 6.69 | 6.67 | 6.8 | 7.92 | 102 | 127 | 111 | 57.6 | 7.68 | 7.7 | 7.72 | 6.89 | 7.19 | 7.05 | 5.24 | 107 | 119 | 108 | 74.2 | 10.5 | 8.35 | 8.38 | 8.07 | 7.55 | 6.64 | 5.83
11 | Cc1cnc(NC(=O)Nc2cc(Br)c(C)cc2OC[C@@H]2CNCCO2)cn1 | 119 | 106 | 112 | 113 | 120 | 106 | 104 | 100 | 76.7 | 93.8 | 48.4 | 108 | 109 | 105 | 111 | 118 | 115 | 111 | 99.1 | 67.9 | 99.5 | 34.3 | 114 | 120 | 118 | 121 | 121 | 123 | 110 | 91 | 53.2 | 82.4 | 23.9
12 | COc1cc2c(cc1OC)CC(=O)N(CCCN(C)C[C@H]1Cc3cc(OC)c(OC)cc31)CC2.Cl | 108 | 111 | 111 | 108 | 104 | 120 | 113 | 114 | 116 | 108 | 106 | 97.5 | 106 | 115 | 113 | 109 | 111 | 110 | 102 | 109 | 104 | 106 | 104 | 104 | 114 | 115 | 113 | 111 | 102 | 97.3 | 108 | 98.1 | 100
13 | CC(C)(C)c1[nH]cnc1/C=c1\[nH]c(=O)/c(=C/c2ccccc2)[nH]c1=O | 115 | 80 | 22.5 | 18.4 | 12 | 9.79 | 7.81 | 3.5 | 2.31 | 2.32 | 2.23 | 100 | 97 | 16.3 | 26.5 | 17.8 | 8.22 | 5.98 | 3.28 | 2.14 | 1.52 | 1.95 | 103 | 110 | 32.7 | 36.8 | 25 | 15.7 | 14.2 | 4.42 | 4.87 | 2.24 | 2.04
14 | C\C1=C(\C=C(\C#N)C(=O)N1)C2=CC=NC=C2 | 104 | 104 | 102 | 102 | 105 | 106 | 107 | 115 | 109 | 109 | 13.8 | 110 | 114 | 112 | 118 | 118 | 107 | 112 | 118 | 112 | 121 | 18.4 | 94.6 | 105 | 103 | 98.9 | 110 | 107 | 109 | 110 | 111 | 108 | 27.9
15 | COCCCN1CCC(NC(=O)c2cc(Cl)c(N)c3c2OCC3)CC1 | 114 | 124 | 127 | 132 | 132 | 134 | 134 | 133 | 146 | 132 | 124 | – | – | – | – | – | – | – | – | – | – | – | – | – | – | – | – | – | – | – | – | – | –
16 | CN(C)C1=CC=C(C=C1)C(C2=CC=C(C=C2)N(C)C)=C/3\C=C/C(/C=C3)=[N+](C)C | 114 | 107 | 122 | 116 | 115 | 74.1 | 18.5 | 1.52 | 1.65 | 1.9 | 0.24 | 107 | 103 | 102 | 111 | 94.9 | 24.6 | 14.9 | 3.64 | 6.36 | 4.49 | 0.553 | 110 | 104 | 115 | 106 | 94.1 | 34.3 | 19.2 | 10.9 | 12.8 | 3.78 | 0.17
17 | NC(=O)c1ccc(I)c([N+](=O)[O-])c1 | 117 | 126 | 124 | 115 | 130 | 139 | 133 | 134 | 132 | 128 | 125 | – | – | – | – | – | – | – | – | – | – | – | – | – | – | – | – | – | – | – | – | – | –
